Measurements reported in ChEMBL document CHEMBL3351732, “Potent bisimidazole-based HCV NS5A inhibitors bearing annulated tricyclic motifs” (Bioorg Med Chem Lett, 2014).

Tests used:
[1] = Oral bioavailability in Sprague-Dawley rat at 5 mg/kg formulated with 5%MC, 95% saline; assay type: ADME, organism-based; conditions: in vivo
[2] = Cmax in beagle dog at 75 mg/kg, po; assay type: ADME, organism-based, Canis lupus familiaris; design: dose 75 mg/kg, route oral; conditions: in vivo
[3] = Volume of distribution at steady state in beagle dog at 1 mg/kg, iv; assay type: ADME, organism-based, Canis lupus familiaris; design: dose 1 mg/kg, route intravenous; conditions: in vivo, read-out: Vdss
[4] = Tmax in Sprague-Dawley rat at 5 mg/kg, po formulated with 5%MC, 95% saline; assay type: ADME, organism-based; design: dose 5 mg/kg, route oral; conditions: in vivo
[5] = Cmax in cynomolgus monkey at 250 mg/kg, po; assay type: ADME, organism-based, Macaca fascicularis; design: dose 250 mg/kg, route oral; conditions: in vivo
[6] = AUC(last) in Sprague-Dawley rat at 75 mg/kg, po; assay type: ADME, organism-based; design: time 0 - last, dose 75 mg/kg, route oral; conditions: plasma
[7] = Cmax in cynomolgus monkey at 75 mg/kg, po; assay type: ADME, organism-based, Macaca fascicularis; design: dose 75 mg/kg, route oral; conditions: in vivo
Hepatitis C virus [8] = assay: Antiviral activity against HCV genotype 1a infected in human HuH7 cells by luciferase reporter gene assay; assay type: functional, cell-based, Hepacivirus hominis; conditions: subtype 1a, Huh-7
[9] = Volume of distribution at steady state in cynomolgus monkey at 1 mg/kg, iv; assay type: ADME, organism-based, Macaca fascicularis; design: dose 1 mg/kg, route intravenous; conditions: in vivo, read-out: Vdss
Hepatitis C virus [10] = assay: Antiviral activity against HCV genotype 5a infected in human HuH7 cells by luciferase reporter gene assay; assay type: functional, cell-based, Hepacivirus hominis; conditions: Huh-7
Hepatitis C virus [11] = assay: Antiviral activity against HCV genotype 6a infected in human HuH7 cells by luciferase reporter gene assay; assay type: functional, cell-based, Hepacivirus hominis; conditions: Huh-7
[12] = AUC(last) in beagle dog at 250 mg/kg, po; assay type: ADME, organism-based, Canis lupus familiaris; design: dose 250 mg/kg, route oral, time 0 - last; conditions: plasma
[13] = Cmax in Sprague-Dawley rat at 250 mg/kg, po; assay type: ADME, organism-based; design: dose 250 mg/kg, route oral; conditions: in vivo
[14] = Oral bioavailability in cynomolgus monkey at 5 mg/kg; assay type: ADME, organism-based, Macaca fascicularis; conditions: in vivo
[15] = Tmax in cynomolgus monkey at 250 mg/kg, po; assay type: ADME, organism-based, Macaca fascicularis; design: dose 250 mg/kg, route oral; conditions: in vivo
[16] = Half life in cynomolgus monkey at 1 mg/kg, iv; assay type: ADME, organism-based, Macaca fascicularis; design: dose 1 mg/kg, route intravenous; conditions: in vivo
[17] = Tmax in cynomolgus monkey at 5 mg/kg, po; assay type: ADME, organism-based, Macaca fascicularis; design: dose 5 mg/kg, route oral; conditions: in vivo
[18] = Half life in beagle dog at 1 mg/kg, iv; assay type: ADME, organism-based, Canis lupus familiaris; design: dose 1 mg/kg, route intravenous; conditions: in vivo
[19] = Clearance in cynomolgus monkey at 1 mg/kg, iv; assay type: ADME, organism-based, Macaca fascicularis; design: dose 1 mg/kg, route intravenous; conditions: in vivo
[20] = Tmax in Sprague-Dawley rat at 75 mg/kg, po; assay type: ADME, organism-based; design: dose 75 mg/kg, route oral; conditions: in vivo
[21] = AUC(last) in beagle dog at 75 mg/kg, po; assay type: ADME, organism-based, Canis lupus familiaris; design: time 0 - last, dose 75 mg/kg, route oral; conditions: plasma
[22] = Cmax in beagle dog at 250 mg/kg, po; assay type: ADME, organism-based, Canis lupus familiaris; design: dose 250 mg/kg, route oral; conditions: in vivo
[23] = AUC(last) in Sprague-Dawley rat at 5 mg/kg, po formulated with 5%MC, 95% saline; assay type: ADME, organism-based; design: time 0 - last, dose 5 mg/kg, route oral; conditions: plasma
[24] = Tmax in beagle dog at 5 mg/kg, po; assay type: ADME, organism-based, Canis lupus familiaris; design: dose 5 mg/kg, route oral; conditions: in vivo
[25] = Cmax in cynomolgus monkey at 5 mg/kg, po; assay type: ADME, organism-based, Macaca fascicularis; design: dose 5 mg/kg, route oral; conditions: in vivo
[26] = AUC(last) in cynomolgus monkey at 5 mg/kg, po; assay type: ADME, organism-based, Macaca fascicularis; design: time 0 - last, dose 5 mg/kg, route oral; conditions: plasma
[27] = Oral bioavailability in beagle dog at 5 mg/kg; assay type: ADME, organism-based, Canis lupus familiaris; conditions: in vivo
Hepatitis C virus [28] = assay: Antiviral activity against HCV genotype 4a infected in human HuH7 cells by luciferase reporter gene assay; assay type: functional, cell-based, Hepacivirus hominis; conditions: Huh-7
[29] = Cmax in Sprague-Dawley rat at 5 mg/kg, po; assay type: ADME, organism-based; design: dose 5 mg/kg, route oral; conditions: in vivo
[30] = AUC(last) in beagle dog at 5 mg/kg, po; assay type: ADME, organism-based, Canis lupus familiaris; design: time 0 - last, dose 5 mg/kg, route oral; conditions: plasma
[31] = Tmax in Sprague-Dawley rat at 250 mg/kg, po; assay type: ADME, organism-based; design: dose 250 mg/kg, route oral; conditions: in vivo
[32] = Drug level in Sprague-Dawley rat liver at 5 mg/kg, po measured 4 hrs post dose; assay type: ADME, organism-based; design: dose 5 mg/kg, route oral; conditions: read-out: Drug uptake
[33] = Tmax in beagle dog at 75 mg/kg, po; assay type: ADME, organism-based, Canis lupus familiaris; design: dose 75 mg/kg, route oral; conditions: in vivo
[34] = AUC(last) in cynomolgus monkey at 75 mg/kg, po; assay type: ADME, organism-based, Macaca fascicularis; design: time 0 - last, dose 75 mg/kg, route oral; conditions: plasma
[35] = AUC(last) in cynomolgus monkey at 1 mg/kg, iv; assay type: ADME, organism-based, Macaca fascicularis; design: time 0 - last, dose 1 mg/kg, route intravenous; conditions: plasma
Hepatitis C virus [36] = assay: Antiviral activity against HCV genotype 1b infected in human HuH7 cells by luciferase reporter gene assay; assay type: functional, cell-based, Hepacivirus hominis; conditions: Huh-7
[37] = Half life in Sprague-Dawley rat at 1 mg/kg, iv; assay type: ADME, organism-based; design: dose 1 mg/kg, route intravenous; conditions: in vivo
[38] = Tmax in beagle dog at 250 mg/kg, po; assay type: ADME, organism-based, Canis lupus familiaris; design: dose 250 mg/kg, route oral; conditions: in vivo
[39] = Tmax in Sprague-Dawley rat at 5 mg/kg, po; assay type: ADME, organism-based; design: dose 5 mg/kg, route oral; conditions: in vivo
[40] = Tmax in cynomolgus monkey at 75 mg/kg, po; assay type: ADME, organism-based, Macaca fascicularis; design: dose 75 mg/kg, route oral; conditions: in vivo
[41] = Cmax in Sprague-Dawley rat at 5 mg/kg, po formulated with 5%MC, 95% saline; assay type: ADME, organism-based; design: dose 5 mg/kg, route oral; conditions: in vivo
[42] = Volume of distribution at steady state in Sprague-Dawley rat at 1 mg/kg, iv; assay type: ADME, organism-based; design: dose 1 mg/kg, route intravenous; conditions: in vivo, read-out: Vdss
[43] = Clearance in Sprague-Dawley rat at 1 mg/kg, iv; assay type: ADME, organism-based; design: dose 1 mg/kg, route intravenous; conditions: Sprague-Dawley, in vivo
Hepatitis C virus [44] = assay: Antiviral activity against HCV genotype 3a infected in human HuH7 cells by luciferase reporter gene assay; assay type: functional, cell-based, Hepacivirus hominis; conditions: Huh-7
[45] = Cmax in Sprague-Dawley rat at 75 mg/kg, po; assay type: ADME, organism-based; design: dose 75 mg/kg, route oral; conditions: in vivo
[46] = Oral bioavailability in Sprague-Dawley rat at 5 mg/kg; assay type: ADME, organism-based; conditions: in vivo
[47] = Clearance in beagle dog at 1 mg/kg, iv; assay type: ADME, organism-based, Canis lupus familiaris; design: dose 1 mg/kg, route intravenous; conditions: in vivo
[48] = AUC(last) in Sprague-Dawley rat at 250 mg/kg, po; assay type: ADME, organism-based; design: time 0 - last, dose 250 mg/kg, route oral; conditions: plasma
[49] = Plasma concentration in Sprague-Dawley rat at 5 mg/kg, po measured 4 hrs post dose; assay type: ADME, organism-based; design: dose 5 mg/kg, route oral
[50] = AUC(last) in cynomolgus monkey at 250 mg/kg, po; assay type: ADME, organism-based, Macaca fascicularis; design: time 0 - last, dose 250 mg/kg, route oral; conditions: plasma
[51] = Cmax in beagle dog at 5 mg/kg, po; assay type: ADME, organism-based, Canis lupus familiaris; design: dose 5 mg/kg, route oral; conditions: in vivo
[52] = AUC(last) in beagle dog at 1 mg/kg, iv; assay type: ADME, organism-based, Canis lupus familiaris; design: time 0 - last, dose 1 mg/kg, route intravenous; conditions: plasma
[53] = AUC(last) in Sprague-Dawley rat at 1 mg/kg, iv; assay type: ADME, organism-based, Plasma; design: time 0 - last, dose 1 mg/kg, route intravenous; conditions: Sprague-Dawley, plasma
[54] = AUC(last) in Sprague-Dawley rat at 5 mg/kg, po; assay type: ADME, organism-based; design: dose 5 mg/kg, route oral, time 0 - last; conditions: plasma

- bioavailability [1]: 88.9%
- Cmax [2]: 6400 ng/mL
- Vd [3]: 0.74 L/kg
- Tmax [4]: 0.5 h
- Cmax [5]: 8100 ng/mL
- AUC(0-t) [6]: 137000 ng·h/mL
- Cmax [7]: 3600 ng/mL
- EC50 (Hepatitis C virus [8]): 0.073 nM
- Vd [9]: 1.33 L/kg
- EC50 (Hepatitis C virus [10]): 0.017 nM
- EC50 (Hepatitis C virus [11]): 0.062 nM
- AUC(0-t) [12]: 192000 ng·h/mL
- Cmax [13]: 16200 ng/mL
- bioavailability [14]: 28.4%
- Tmax [15]: 4 h
- half-life [16]: 3.56 h
- Tmax [17]: 3 h
- half-life [18]: 3.77 h
- clearance [19]: 7 mL/min/kg
- Tmax [20]: 4 h
- AUC(0-t) [21]: 83000 ng·h/mL
- Cmax [22]: 12200 ng/mL
- AUC(0-t) [23]: 4120 ng·h/mL
- Tmax [24]: 1 h
- Cmax [25]: 486 ng/mL
- AUC(0-t) [26]: 3370 ng·h/mL
- bioavailability [27]: 53.4%
- EC50 (Hepatitis C virus [28]): 0.025 nM
- Cmax [29]: 874 ng/mL
- AUC(0-t) [30]: 16500 ng·h/mL
- Tmax [31]: 3.33 h
- concentration at 4 h [32]: 2610 ng/mL
- Tmax [33]: 4 h
- AUC(0-t) [34]: 17800 ng·h/mL
- AUC(0-t) [35]: 2380 ng·h/mL
- EC50 (Hepatitis C virus [36]): 0.011 nM
- half-life [37]: 1.41 h
- Tmax [38]: 5 h
- Tmax [39]: 3 h
- Tmax [40]: 3 h
- Cmax [41]: 761 ng/mL
- Vd [42]: 1.8 L/kg
- clearance [43]: 17.8 mL/min/kg
- EC50 (Hepatitis C virus [44]): 0.29 nM
- Cmax [45]: 12400 ng/mL
- bioavailability [46]: 112%
- clearance [47]: 2.67 mL/min/kg
- AUC(0-t) [48]: 187000 ng·h/mL
- concentration at 4 h [49]: 833 ng/mL
- AUC(0-t) [50]: 46600 ng·h/mL
- Cmax [51]: 2760 ng/mL
- AUC(0-t) [52]: 6180 ng·h/mL
- AUC(0-t) [53]: 926 ng·h/mL
- AUC(0-t) [54]: 5250 ng·h/mL
SMILES: COC(=O)N[C@H](C(=O)N1CCC[C@H]1c1ncc(-c2ccc3c(c2)Oc2ccc(-c4cnc([C@@H]5CCCN5C(=O)[C@@H](NC(=O)OC)C(C)C)[nH]4)cc2C3(C)C)[nH]1)C(C)C
